In patent US20220202905A1, “COMPOSITION FOR PREVENTING OR TREATING NEUROTROPHIC KERATITIS WHICH CONTAINS PACAP PEPTIDE OR STABILIZED PACAP PEPTIDE” (SENJU PHARMACEUTICAL CO., LTD., priority 2019, published 2022):
Square brackets hold non-standard residues; d marks the D form. Peptide text beside a SMILES is read from it. Ala(1H-tetrazol-5-yl) = N[C@@H](Cc1nnn[nH]1)C(=O)O

Key:
[1] = Peptide stability test, phosphate buffer (pH 7.0), 40° C. storage, HPLC remaining rate; format: physicochemical
Protocol: Peptides 1 and 3 to 5 synthesized in Example 2 were weighed and dissolved in phosphate buffer (pH 7.0) to prepare 1.0 mM peptide solutions. The 1.0 mM peptide solutions were then diluted with phosphate buffer to 100 μM. After filtering with Chromatdisk (product of Merck Millipore, Millex-GV, 0.22 μm), each filtrate was dispensed into an LC vial (Waters Deactivated […] prepared peptide solutions were incubated for one month or 2 months in a 40° C. thermostatic bath to obtain stored samples. A simultaneously prepared sample among the peptide solutions that was not stored was used as a standard sample (initial sample). The standard sample and the stored samples were stored at -30° C. until sample analysis. Using the total weight of the aqueous peptide solution and storage vessel as the specimen weight, measurements were recorded as the specimen weights before storage and the specimen weights after storage under different storage conditions. The empty weight of the storage vessel was also measured, and the moisture permeability was determined by the following formula. After stirring the standard sample and the stored samples with a vortex mixer, each peptide solution was transferred to an HPLC vial (Deactivated Qsert vial by Waters Co.). Reverse-phase HPLC (HPLC system: Prominence by Shimadzu Corp.) was conducted under the conditions shown in Table 3 below for analysis of the peptide solutions, and chromatograms were obtained. Guard column: XSelect CSH C18 by Waters Co., 5 μm, 4.6×20 mm Guard Cartridge Detection wavelength: 220 nm Mobile phase A: 0.1% formic acid aqueous solution Mobile phase B: 0.1% acetonitrile formate solution Measuring time: 30 minutes Measuring sample injection rate: 50 μL Flow rate: 1.0 mL/min Sample cooler: 4° C. Column temperature: 40° C. Mobile phase delivery: The mixing ratio of mobile phase A and mobile phase B was varied as shown in Table 3 for linear concentration gradient control. The peak area value for the peptide in the chromatogram was calculated, and the remaining rate (remaining rate before correction for water) was calculated using formula (2). The remaining rate after correction for water was also calculated from the remaining rate before correction for water using formula (3), taking into account the moisture permeability of the vessel. Peptides 10 and 11 synthesized in Example 2 were weighed and dissolved in phosphate buffer (pH 7.0) to prepare 1.0 mM peptide solutions. Each solution was filtered with a Chromatdisk (product of Merck Millipore. Millex-GV, 0.22 μm). Each filtrate was diluted to 100 μM with phosphate buffer (pH 7.0) and dispensed into a tube (Protein LoBind Tube by Eppendorf Co.). The prepared peptide solutions were incubated for one month or 2 months in a 40° C. thermostatic bath to obtain stored samples. A simultaneously prepared sample among the peptide solutions that was not stored was used as a standard sample (initial sample). The standard sample and the stored samples were stored at -30° C. until sample analysis. The remaining rate after correction for water for each peptide among the stored samples was measured in the same manner as Example 4, and the results are shown in Table 8.

[2] = molecular target: T1, VPAC1R (Homo sapiens, UniProt P32241); assay: cAMP assay in VPAC1R high-expressing CHO-K1 cell line; format: cell-based; settings: Table 12; cAMP inducing effect, CHO-K1 VPAC1R high-expressing cells
T1 construct: host or cells: CHO-K1
T1 sequence (P32241 31-457): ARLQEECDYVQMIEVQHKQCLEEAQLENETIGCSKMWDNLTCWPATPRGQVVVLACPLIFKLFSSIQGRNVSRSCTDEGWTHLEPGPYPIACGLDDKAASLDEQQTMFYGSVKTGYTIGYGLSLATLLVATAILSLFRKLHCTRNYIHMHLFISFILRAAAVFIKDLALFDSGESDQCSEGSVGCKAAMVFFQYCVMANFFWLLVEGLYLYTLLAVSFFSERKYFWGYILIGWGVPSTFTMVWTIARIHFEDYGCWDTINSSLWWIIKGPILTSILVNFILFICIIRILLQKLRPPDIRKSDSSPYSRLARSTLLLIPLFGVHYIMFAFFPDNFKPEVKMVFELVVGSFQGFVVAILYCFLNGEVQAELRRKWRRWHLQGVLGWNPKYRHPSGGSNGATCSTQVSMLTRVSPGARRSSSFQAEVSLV
Protocol: (§1) The cells were cultured for 18 to 24 hours at 37° C. in a 5% C02 incubator, adhering the cells to the plate. […] A 5-fold dilution series was then prepared with the same Cell assay buffer and used in an assay. The cAMP assay was carried out using a Hit Hunter cAMP Assay for Biologics kit (product of DiscoveRx, Cat. No. 90-0075LM25), according to the included kit instructions. […] Next, the culture medium was removed from the CHO-K1 cell culture plate, washing was performed with PBS, and the peptide-cAMP antibody liquid mixtures were added to the cells and incubated for 30 minutes under a 5% CO2 atmosphere at 37° C. A working detection solution was then added and the culture plate was shielded from light with aluminum foil and incubated at 25° C. for 1 hour. After incubation, Solution A was added and the culture plate was shielded from light with aluminum foil and then incubated at 25° C. for 3 hours. […] The obtained value for the Relative Luminescence Unit (RLU) was analyzed with GraphPad Prism Ver 6.05 (product of Graph Pad) and the EC50 value was calculated for each peptide. […] FIG. 2 and Table 11. […] A 5-fold dilution series was then prepared with the same Cell assay buffer and used in an assay. […] A 5-fold dilution series was then prepared with the same Cell assay buffer and used in an assay.

[3] = Peptide stability test, Tris buffer (pH 7.0), 60° C. storage, HPLC remaining rate; format: physicochemical; settings: Table 7; 100 μM in Tris buffer pH 7.0
Outline: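 Peptides at 100 μM in Tris buffer (pH 7.0) stored 1 or 2 weeks at 60° C.; unstored sample kept at −30° C. as initial reference. Remaining peptide quantified by reversed-phase HPLC at 220 nm (formic acid/acetonitrile gradient, 40° C. column), as water-corrected remaining rate.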

[4] = molecular target: T2, PAC1R (Homo sapiens, UniProt P41586); assay: cAMP assay in PAC1R high-expressing CHO-K1 cell line; format: cell-based; settings: Table 12; cAMP inducing effect, CHO-K1 PAC1R high-expressing cells
T2 construct: host or cells: CHO-K1
T2 sequence (P41586 21-468): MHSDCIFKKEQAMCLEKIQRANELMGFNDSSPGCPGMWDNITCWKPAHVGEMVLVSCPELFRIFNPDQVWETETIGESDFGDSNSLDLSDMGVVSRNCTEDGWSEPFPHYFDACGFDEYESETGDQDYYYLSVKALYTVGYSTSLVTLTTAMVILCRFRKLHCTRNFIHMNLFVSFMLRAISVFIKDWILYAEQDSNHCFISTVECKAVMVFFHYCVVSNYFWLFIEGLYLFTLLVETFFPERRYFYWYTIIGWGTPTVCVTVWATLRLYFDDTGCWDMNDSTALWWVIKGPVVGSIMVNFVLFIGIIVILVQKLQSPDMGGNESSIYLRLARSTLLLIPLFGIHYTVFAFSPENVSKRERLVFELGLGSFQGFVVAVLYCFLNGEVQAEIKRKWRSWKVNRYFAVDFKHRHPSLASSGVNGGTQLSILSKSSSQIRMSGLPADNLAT
Protocol: as §1

[5] = Table 8, 100 μM in phosphate buffer pH 7.0, measured as in Example 4

Row | remaining rate after correction for water, 40° C., 1 month preservation [1, 5] | remaining rate after correction for water, 40° C., 2 months preservation [1, 5] | stability in aqueous solution (in words), 40° C. storage ([1]; phosphate buffer pH 7.0, 1 or 2 months) | EC50 [2] | remaining rate after correction for water, 60° C., 1 week preservation [3] | remaining rate after correction for water, 60° C., 2 weeks preservation [3] | EC50 [4] | Compound
1 | 94.0% | 86.8% | stabilized to the same degree | 0.101 nM | – | – | – | CC[C@H](C)[C@H](NC(=O)CNC(=O)[C@H](Cc1nnn[nH]1)NC(=O)[C@H](CO)NC(=O)[C@H](Cc1c[nH]cn1)NC(C)=O)C(=O)N[C@@H](Cc1ccccc1)C(=O)N[C@H](C(=O)N[C@@H](Cc1nnn[nH]1)C(=O)N[C@@H](CO)C(=O)N[C@@H](Cc1ccc(O)cc1)C(=O)N[C@@H](CO)C(=O)N[C@@H](CCCNC(=N)N)C(=O)N[C@@H](Cc1ccc(O)cc1)C(=O)N[C@@H](CCCNC(=N)N)C(=O)N[C@@H](CCCCN)C(=O)N[C@@H](CCC(N)=O)C(=O)N[C@@H](CCSC)C(=O)N[C@@H](C)C(=O)N[C@H](C(=O)N[C@@H](CCCCN)C(=O)N[C@@H](CCCCN)C(=O)N[C@@H](Cc1ccc(O)cc1)C(=O)N[C@@H](CC(C)C)C(=O)N[C@@H](C)C(=O)N[C@@H](C)C(=O)N[C@H](C(=O)N[C@@H](CC(C)C)C(N)=O)C(C)C)C(C)C)[C@@H](C)O [Peptide 10] (Ac-HS[Ala(1H-tetrazol-5-yl)]GIFT[Ala(1H-tetrazol-5-yl)]SYSRYRKQMAVKKYLAAVL-NH2)
2 | – | – | – | 0.044 nM | 96.4% | 93.5% | 0.06 nM | CC[C@H](C)[C@H](NC(=O)CNC(=O)[C@H](Cc1nnn[nH]1)NC(=O)[C@H](CO)NC(=O)[C@H](Cc1c[nH]cn1)NC(C)=O)C(=O)N[C@@H](Cc1ccccc1)C(=O)N[C@H](C(=O)N[C@@H](Cc1nnn[nH]1)C(=O)N[C@@H](C)C(=O)N[C@@H](Cc1ccc(O)cc1)C(=O)N[C@@H](CO)C(=O)N[C@@H](CCCNC(=N)N)C(=O)N[C@@H](Cc1ccc(O)cc1)C(=O)N[C@@H](CCCNC(=N)N)C(=O)N[C@@H](CCCCN)C(=O)N[C@@H](CCC(N)=O)C(=O)N[C@@H](C)C(=O)N[C@@H](C)C(=O)N[C@H](C(=O)N[C@@H](CCCCN)C(=O)N[C@@H](CCCCN)C(=O)N[C@@H](Cc1ccc(O)cc1)C(=O)N[C@@H](CC(C)C)C(=O)N[C@@H](C)C(=O)N[C@@H](C)C(=O)N[C@H](C(=O)N[C@@H](CC(C)C)C(N)=O)C(C)C)C(C)C)[C@@H](C)O [Peptide 27] (Ac-HS[Ala(1H-tetrazol-5-yl)]GIFT[Ala(1H-tetrazol-5-yl)]AYSRYRKQAAVKKYLAAVL-NH2)
3 | – | – | – | 0.101 nM | – | – | 0.06 nM | CC[C@H](C)[C@H](NC(=O)CNC(=O)[C@H](Cc1nnn[nH]1)NC(=O)[C@H](CO)NC(=O)[C@@H](N)Cc1c[nH]cn1)C(=O)N[C@@H](Cc1ccccc1)C(=O)N[C@H](C(=O)N[C@@H](CC(=O)O)C(=O)N[C@@H](CO)C(=O)N[C@@H](Cc1ccc(O)cc1)C(=O)N[C@@H](CO)C(=O)N[C@@H](CCCNC(=N)N)C(=O)N[C@@H](Cc1ccc(O)cc1)C(=O)N[C@@H](CCCNC(=N)N)C(=O)N[C@@H](CCCCN)C(=O)N[C@@H](CCC(N)=O)C(=O)N[C@@H](CCSC)C(=O)N[C@@H](C)C(=O)N[C@H](C(=O)N[C@@H](CCCCN)C(=O)N[C@@H](CCCCN)C(=O)N[C@@H](Cc1ccc(O)cc1)C(=O)N[C@@H](CC(C)C)C(=O)N[C@@H](C)C(=O)N[C@@H](C)C(=O)N[C@H](C(=O)N[C@@H](CC(C)C)C(N)=O)C(C)C)C(C)C)[C@@H](C)O [Peptide 3]
4 | – | – | – | 0.072 nM | 96.5% | 93.1% | 0.079 nM | CC[C@H](C)[C@H](NC(=O)[C@H](C)NC(=O)[C@H](Cc1nnn[nH]1)NC(=O)[C@H](CO)NC(=O)[C@H](Cc1c[nH]cn1)NC(C)=O)C(=O)N[C@@H](Cc1ccccc1)C(=O)N[C@H](C(=O)N[C@@H](Cc1nnn[nH]1)C(=O)N[C@@H](CO)C(=O)N[C@@H](Cc1ccc(O)cc1)C(=O)N[C@@H](CO)C(=O)N[C@@H](CCCNC(=N)N)C(=O)N[C@@H](Cc1ccc(O)cc1)C(=O)N[C@@H](CCCNC(=N)N)C(=O)N[C@@H](CCCCN)C(=O)N[C@@H](CCC(N)=O)C(=O)N[C@@H](CC(C)C)C(=O)N[C@@H](C)C(=O)N[C@H](C(=O)N[C@@H](CCCCN)C(=O)N[C@@H](CCCCN)C(=O)N[C@@H](Cc1ccc(O)cc1)C(=O)N[C@@H](CC(C)C)C(=O)N[C@@H](C)C(=O)N[C@@H](C)C(=O)N[C@H](C(=O)N[C@@H](CC(C)C)C(N)=O)C(C)C)C(C)C)[C@@H](C)O [Peptide 23] (Ac-HS[Ala(1H-tetrazol-5-yl)]AIFT[Ala(1H-tetrazol-5-yl)]SYSRYRKQLAVKKYLAAVL-NH2)
